Source: PMC7668297 (Journal of medicinal chemistry, 2020)
Entries after “also recorded” stand apart in the source; their conditions may differ.

Experiments:
A549 cells = assay: cells; conditions: Homo sapiens, A549, 72 h, read-out: Cell proliferation IC50 ± SD
A375 cells = assay: cells; conditions: Homo sapiens, A-375, 72 h, read-out: Cell proliferation IC50 ± SD
MCF7 cells = assay: cells; conditions: Homo sapiens, MCF7, 72 h, read-out: Cell proliferation IC50 ± SD
G-361 cells = assay: cells; conditions: Homo sapiens, G-361, 72 h, read-out: Cell proliferation IC50 ± SD
HeLa cells = assay: cells; conditions: Homo sapiens, 72 h, read-out: Cell proliferation IC50 ± SD
human topoIIα [1] = target: T1, human topoIIα (Homo sapiens, UniProt P11388); assay: ATP hydrolysis; type: biochemical; conditions: 0-25 µM compound
set of 47 proteins = assay: Off-target safety profiling; conditions: tested at 2 µM
human topoIIα [2] = target: T1, human topoIIα; assay: DNA cleavage assay; type: biochemical; conditions: 0-200 µM compound
[3] = mouse, in vivo, ip, 10 mg/kg
[4] = test system: H2AX phosphorylation in HeLa cells; assay: Immunodetection of H2AX phosphorylation; type: cell-based, human; conditions: 90 minutes, at IC50 concentration
human topoIIβ = human topoIIβ (Homo sapiens, UniProt Q02880); assay: DNA relaxation catalyzed by human topoIIβ; type: biochemical
relaxed pBR322 DNA = assay: DNA intercalation; type: binding; conditions: 0-25 µM compound
hERG channel = hERG channel (Homo sapiens, UniProt Q12809); assay: Off-target safety profiling, hERG channel; conditions: tested at 2 µM
human topoIIα [5] = target: T1, human topoIIα; assay: DNA relaxation catalyzed by human topoIIα; type: biochemical; conditions: ratio of DNA relaxation IC50 values

NC1CCc2nc(-c3ccncc3)nc(Nc3ccc(F)cc3)c2C1 (stereo not shown) [Compound 10, N4-(4-fluorophenyl)-2-(4-pyridyl)-5,6,7,8-tetrahydroquinazoline-4,6-diamine]
IC50 (A549 cells): 22.9 ± 6.5 µM
IC50 (A375 cells): 12.3 ± 1.8 µM
IC50 (MCF7 cells): 16 ± 0.5 µM
IC50 (G-361 cells): 3 ± 0.7 µM
IC50 (HeLa cells): 20.8 ± 4.5 µM

NC1CCc2nc(-c3ccncc3)nc(Nc3cccc(F)c3)c2C1 (stereo not shown) [Compound 1, N4-(3-fluorophenyl)-2-(4-pyridyl)-5,6,7,8-tetrahydroquinazoline-4,6-diamine]
IC50 (A549 cells): 19.4 ± 1.8 µM
IC50 (A375 cells): 9.9 ± 0.1 µM
IC50 (MCF7 cells): 13.9 ± 2.3 µM
IC50 (G-361 cells): 1.4 ± 0.4 µM
IC50 (HeLa cells): 17 ± 1.9 µM

N[C@@H]1CCc2nc(-c3ccncc3)nc(Nc3cccc(F)c3)c2C1 [Compound 4, (6S)-N4-(3-fluorophenyl)-2-(4-pyridyl)-5,6,7,8-tetrahydroquinazoline-4,6-diamine]
IC50 (A549 cells): 17.8 ± 0.6 µM
IC50 (A375 cells): 10.8 ± 0.1 µM
IC50 (MCF7 cells): 16.2 ± 2.6 µM
IC50 (G-361 cells): 1.8 ± 0.6 µM
IC50 (HeLa cells): 21.8 ± 4.6 µM

COc1cccc(Nc2nc(-c3ccncc3)nc3c2CC(N)CC3)c1 (stereo not shown) [Compound 11, N4-(3-methoxyphenyl)-2-(4-pyridyl)-5,6,7,8-tetrahydroquinazoline-4,6-diamine]
IC50 (A549 cells): 18 ± 0.1 µM
IC50 (A375 cells): 15.1 ± 4.8 µM
IC50 (MCF7 cells): 15.8 ± 1.4 µM
IC50 (G-361 cells): 6.6 ± 3.1 µM
IC50 (HeLa cells): 17.2 ± 2.6 µM

CN(C)c1ccc(Nc2nc(-c3ccncc3)nc3c2CC(N)CC3)cc1 (stereo not shown) [Compound 14, N4-[4-(dimethylamino)phenyl]-2-(4-pyridyl)-5,6,7,8-tetrahydroquinazoline-4,6-diamine]
inhibition of topoIIα-catalyzed ATP hydrolysis (human topoIIα [1]; in the absence of DNA): none
inhibition of topoIIα-catalyzed ATP hydrolysis (human topoIIα [1]; in the presence of DNA): little ability to inhibit
IC50 (A549 cells): 17.1 ± 8.7 µM
off-target activity (agonist and antagonist) on 47 proteins (set of 47 proteins): no noteworthy activity
ability to increase enzyme-mediated DNA cleavage (human topoIIα [2]): no ability to increase levels of enzyme-mediated DNA cleavage
brain penetration [3]: able to reach the brain
IC50 (A375 cells): 12.6 ± 0.7 µM
phosphorylation of H2AX (reporter of DNA damage) [4]: did not induce the phosphorylation of H2AX
IC50 (MCF7 cells): 15.8 ± 1.3 µM
IC50 (human topoIIβ): ~100 µM
IC50 (G-361 cells): 8.1 ± 2.9 µM
DNA intercalation (relaxed pBR322 DNA): did not show this behavior; also recorded: does not intercalate into DNA
IC50 (HeLa cells): 38.2 ± 9.1 µM
activity vs the hERG channel (hERG channel): no noteworthy activity
specificity for topoIIα over topoIIβ (human topoIIα [5]): ~ 50 fold

N[C@H]1CCc2nc(-c3ccncc3)nc(Nc3cccc(F)c3)c2C1 [Compound 3, (6R)-N4-(3-fluorophenyl)-2-(4-pyridyl)-5,6,7,8-tetrahydroquinazoline-4,6-diamine]
IC50 (A549 cells): 23.3 ± 2.3 µM
IC50 (A375 cells): 10.7 ± 0.1 µM
IC50 (MCF7 cells): 14.2 ± 2.5 µM
IC50 (HeLa cells): 17.1 ± 3.2 µM

COc1cc([C@@H]2c3cc4c(cc3[C@@H](O[C@@H]3O[C@@H]5CO[C@@H](C)O[C@H]5[C@H](O)[C@H]3O)[C@H]3COC(=O)[C@H]23)OCO4)cc(OC)c1O [Etoposide, etoposide, reference compound]
IC50 (A549 cells): 2.4 ± 2 µM
IC50 (A375 cells): 0.5 ± 0.1 µM
IC50 (MCF7 cells): 8.9 ± 1.6 µM
IC50 (G-361 cells): 3.8 ± 3 µM
